Assay results reported in publication PMC12569736 (Journal of Cosmetic Dermatology, 2025).
Where two headings read alike, the source gives them in different places.

What was measured:
[1] = system: NRF2/ARE signaling pathway; test: NRF2/ARE‐luciferase reporter assay in HEK293T cells; assay type: cell-based, human; conditions: 10 µM, 48 h, relative to DMSO
Method: The NRF2‐responsive firefly luciferase reporter plasmid (pGL4.27_ARE NRF2‐SPE) and Renilla luciferase control plasmid (pRL‐TK) were co‐transfected into HEK293T cells using Lipofectamine 2000. After 24 h, transfected cells were seeded into 96‐well plates and incubated overnight. Test compounds (10 μM) were added, and cells were incubated for an additional 48 h. Luciferase activities were measured using the Dual‐Lumi Luciferase Reporter Assay Kit (Beyotime Biotechnology), following the manufacturer's instructions.
FIGURE 6 KT‐939 activates the ARE/NRF2 signaling pathway. HEK293T cells transfected with an NRF2‐responsive firefly luciferase reporter were treated with 10 µM of KT‐939, hydroquinone (Hq), 377, or 4‐butylresorcinol for 48 h. Luminescence signals were normalized to renilla and expressed relative to DMSO control. *** p < 0.001 vs DMSO.

MNT‐1 cells [2] = test: Melanin content in MNT‐1 cells after 6 days of treatment; assay type: cell-based, human
Method: MNT‐1 cells were exposed to varying concentrations of test compounds for 6 days. After treatment, cells were harvested and lysed in RIPA buffer on ice for 20 min. Lysates were centrifuged at 13 000 rpm for 10 min at 4°C, and the supernatant was collected. Protein concentration was quantified using a BCA Protein Assay Kit (Thermo Fisher). To extract melanin, cell pellets were dissolved in 1 M NaOH and incubated for 3 h at 80°C. Absorbance at 405 nm was measured using a Synergy H1 Hybrid Reader. Melanin content was quantified by referencing a standard curve of synthetic melanin (maximum concentration 50 μg/mL, 2‐fold gradient dilution, 8 concentration points). Melanin content was normalized to protein concentration (μg melanin/mg protein), and IC50 values were calculated using GraphPad software.
FIGURE 3 Inhibition of melanin production in MNT‐1 by KT‐939, Thiamidol, and 4‐butylresorcinol. MNT‐1 cells were treated with different concentrations of KT‐939, Thiamidol, or 4‐butylresorcinol for 6 days. The melanin content was quantified based on the standard curve of melanin, and the melanin content per mg of protein was utilized for IC50 calculations with GraphPad software.

MNT‐1 cells [3] = test: Cell viability, MNT‐1; assay type: cell-based, human; conditions: MNT‐1, 72 h, up to 50 μM
Method: (§1) B16‐F10, MNT‐1, and HaCaT cells (5000 cells/well) were seeded into 96‐well plates and incubated overnight. Culture medium (50 μL) containing varying concentrations of KT‐939 was added to each well, and cells were incubated for 72 h. Cell viability was assessed using the Cell Viability Assay Kit (Vazyme Biotech), following the manufacturer's instructions. Luminescence was measured using a Synergy H1 Hybrid Reader. DMSO‐treated cells served as the control, and survival rates were calculated and analyzed with GraphPad software.
(§2) B16‐F10, MNT‐1, and HaCaT cells were incubated with different concentrations of KT‐939 for 72 h. Cell viability was assessed and normalized to the DMSO‐treated control group.

HaCaT cells = test: Cell viability, HaCaT; assay type: cell-based, human; conditions: 72 h, up to 50 μM
Method: as §1, §2

MNT‐1 cells [4] = test: Wash‐out assay, melanin content in MNT‐1 cells after drug withdrawal; assay type: cell-based, human; conditions: for inhibition at 1 µM / inhibition at 10 µM: Homo sapiens, read-out: melanin inhibition rate after washout; for inhibition at 1 µM: MNT-1, 1 μM for 6 days; for inhibition at 10 µM: MNT-1, 10 μM for 6 days
Method: MNT‐1 cells were treated with 1 or 10 μM KT‐939 for six days, after which the drug‐containing medium was replaced with standard culture medium. Melanin content was measured at various time points.
FIGURE 4 The inhibitory effect of KT‐939 on melanin production is reversible. MNT‐1 cells were exposed to 1 or 10 μM of KT‐939 for 6 days, followed by drug washout and replacement with normal medium. Melanin content was measured at specified time points. Data represent the mean ± standard deviation of three independent experiments.

[5] = system: LPS‐stimulated RAW264.7 cells; test: RT‐qPCR of inflammatory cytokines in LPS‐stimulated RAW264.7 cells; assay type: cell-based, mouse; conditions: 3, 10 or 30 μM pretreatment 2 h, then 100 ng/mL LPS 16 h, vs LPS group
Method: RAW264.7 cells were treated with KT‐939 at concentrations of 3, 10, or 30 μM and incubated for 2 h. After pretreatment, cells were stimulated with 100 ng/mL LPS for an additional 16 h. Total RNA was extracted using the MiniBEST RNA Extraction Kit (Takara Bio) per the manufacturer's protocol. Reverse transcription and SYBR Green‐based qPCR were performed with ABScript II One Step RT‐qPCR Kit (Abclonal). RT‐PCR primer sequences were as follows: (Mouse) TNF‐α sense: 5‐[…]‐3, antisense: 5‐[…]‐3; (Mouse) IL‐6 sense: 5‐[…]‐3, antisense: 5‐[…]‐3; (Mouse) IL‐1α sense: 5‐[…]‐3, antisense: 5‐[…]‐3; (Mouse) GAPDH sense: 5‐[…]‐3, antisense: 5‐[…]‐3; Expression of target gene mRNA was normalized to GAPDH, and results were analyzed using GraphPad software.
RAW264.7 cells were pre‐treated with different concentrations of KT‐939, followed by the addition of 100 ng/mL LPS for 16 h. mRNA levels of TNF‐α, IL‐6, and IL‐1α were quantified by RT‐PCR and compared to the LPS‐induced group (*p < 0.05, **p < 0.01, ***p < 0.001).

B16‐F10 cells = test: Cell viability, B16‐F10; assay type: cell-based, murine; conditions: B16‐F10, 72 h, up to 50 μM
Method: as §1, §2

[6] = DPPH radical scavenging assay
Method: A DPPH radical scavenging assay kit (Solarbio) was used to assess antioxidant activity, following the manufacturer's instructions. Briefly, 10 μL of each test compound at the indicated concentrations was mixed with 190 μL DPPH solution in a 96‐well plate. Control wells (10 μL compound + 190 μL ethanol) and blank wells (10 μL solvent + 190 μL ethanol) were included. The reaction mixtures were gently shaken and incubated for 30 min at room temperature in the dark. Absorbance was measured at 515 nm using a Synergy H1 Hybrid Reader.
A DPPH radical scavenging assay was conducted to evaluate the antioxidant activity of KT‐939 at various concentrations, with a maximum concentration of 10 mM in a 5‐fold dilution series. Data represent mean ± standard deviation of three independent experiments.

IC50 (MNT‐1 cells [2]; Homo sapiens, 144 h, MNT‐1, 6 days, read-out: IC50 of melanin production): 360 nM
SMILES: CC1(C(=O)Nc2nc(-c3ccc(O)cc3O)cs2)COC1 [KT‐939, N‐(4‐(2,4‐Dihydroxyphenyl) Thiazol‐2‐yl)‐3‐Methyloxetane‐3‐Carboxamide]
NRF2 signaling pathway activation (luciferase reporter) [1]: significantly enhanced the NRF2 signaling pathway | inhibition at 0.37 µM (MNT‐1 cells [2]; Homo sapiens, MNT-1, 144 h, 0.37 μM, 6 days, read-out: inhibition of melanin production): 48.4% | inhibition at 1.1 µM (MNT‐1 cells [2]; Homo sapiens, MNT-1, 144 h, 1.1 μM, 6 days, read-out: inhibition of melanin production): 63.3% | inhibition at 3.3 µM (MNT‐1 cells [2]; Homo sapiens, MNT-1, 144 h, 3.3 μM, 6 days, read-out: inhibition of melanin production): 83.9% | inhibition at 10 µM (MNT‐1 cells [2]; Homo sapiens, MNT-1, 144 h, 10 μM, 6 days, read-out: inhibition of melanin production): 86.7% | fold greater melanin inhibitory potency compared to Thiamidol (MNT‐1 cells [2]; ratio of IC50, vs Thiamidol): approximately 3.6 fold | cytotoxicity (cell viability) (MNT‐1 cells [3]): no significant cytotoxicity | cytotoxicity (cell viability) (HaCaT cells): no significant cytotoxicity | melanin inhibition after washout (MNT‐1 cells [4]; 1 μM for 6 days, after seven days): returning to baseline | melanin content after washout (MNT‐1 cells [4]; 10 μM for 6 days, after 11 days of drug withdrawal): fully returned to normal levels | inhibition at 1 µM (MNT‐1 cells [4]; day 3 after washout): 38% | inhibition at 1 µM (MNT‐1 cells [4]; day 5 after washout): 28.3% | inhibition at 10 µM (MNT‐1 cells [4]; day 3 after washout): 66.6% | inhibition at 10 µM (MNT‐1 cells [4]; day 5 after washout): 52.7% | inhibition at 10 µM (MNT‐1 cells [4]; day 7 after washout): 21.3% | inhibition at 10 µM (MNT‐1 cells [4]; day 9 after washout): 20% | IL‐1α mRNA level [5]: dose‐dependent decrease | IL‐6 mRNA level [5]: dose‐dependent decrease | TNF‐α mRNA level [5]: dose‐dependent decrease | cytotoxicity (cell viability) (B16‐F10 cells): no significant cytotoxicity | DPPH clearance rate ([6]; 0.4 mM): 8.9% | DPPH clearance rate ([6]; 2 mM): 20.2% | DPPH clearance rate ([6]; 10 mM): 43.2% | DPPH clearance rate ([6]; as summed up in the discussion, concentration not given): exceeding 40%
